Data taken from US5567692A, “9-[(substituted glycyl) amido)]-6-demethyl-6-deoxytetracyclines” (priority 1995, dated 1996).
Converted amounts (≈) assume the structure as drawn. Structures can show the parent of a compound that is named as a salt. Where two headings read alike, the source gives them in different places.

How the values were obtained:
E. coli #311 (MP) = experiment: MIC, agar dilution; format: cell-based; details: Escherichia coli, 18 h
E. coli UBMS 89-1 Tet M = experiment: microbe, parasite or virus in culture; format: cell-based; details: Escherichia coli, UBMS891TETM, 18 h
[1] = system: S. aureus UBMS 90-2 Tet M; experiment: microbe, parasite or virus in culture; format: cell-based; details: Staphylococcus aureus, UBMS902TETM, 18 h
[2] = system: Ps. aeruginosa ATCC 27853; experiment: MIC, agar dilution; format: cell-based; details: Pseudomonas aeruginosa, ATCC27853, 18 h
E. coli J2175 = experiment: MIC, agar dilution; format: cell-based; details: Escherichia coli, 18 h, read-out: MIC
S. aureus IVES 1983 = experiment: MIC, agar dilution; format: cell-based; details: Staphylococcus aureus, IVES1983, 18 h
[3] = system: E. coli MC 4100 Tet sens.; experiment: MIC, agar dilution; format: cell-based; details: Escherichia coli, 18 h
S. aureus ATCC 29213 = experiment: MIC, agar dilution; format: cell-based; details: Staphylococcus aureus, ATCC29213, 18 h, S. aureus ATCC 29213
E. faecalis ATCC 29212 = experiment: MIC, agar dilution; format: cell-based; details: Enterococcus faecalis, ATCC29212, 18 h, E. faecalis ATCC 29212; read-out: MIC
E. coli UBMS 88-1 Tet B = experiment: microbe, parasite or virus in culture; format: cell-based; details: Escherichia coli, UBMS881TETB, 18 h
E. coli UBMS 90-5 = experiment: microbe, parasite or virus in culture; format: cell-based; details: Escherichia coli, UBMS905, 18 h, E. coli UBMS 90-5; read-out: MIC
E. coli BAJ9003 IMP MUT = experiment: microbe, parasite or virus in culture; format: cell-based; details: Escherichia coli, BAJ9003IMPMUT, 18 h
E. coli PRP1 Tet A = experiment: microbe, parasite or virus in culture; format: cell-based; details: Escherichia coli, PRP1TETA, 18 h
S. aureus ROSE (MP) = experiment: MIC, agar dilution; format: cell-based; details: Staphylococcus aureus, 18 h
S. aureus IVES 2943 = experiment: MIC, agar dilution; format: cell-based; details: Staphylococcus aureus, IVES2943, 18 h
[4] = system: S. hemolyticus AVHAH 88-3; experiment: MIC, agar dilution; format: cell-based; details: Streptococcus pyogenes, AVHAH883, 18 h
[5] = system: S. aureus UBMS 88-5 Tet M; experiment: microbe, parasite or virus in culture; format: cell-based; details: Staphylococcus aureus, UBMS885TETM, 18 h
S. aureus UBMS 90-3 = experiment: MIC, agar dilution; format: cell-based; details: Staphylococcus aureus, UBMS903, 18 h
[6] = system: X. maltophilia NEMC 87210; experiment: MIC, agar dilution; format: cell-based; details: Stenotrophomonas maltophilia, NEMC87210, 18 h
[7] = system: S. aureus UBMS 88-7 Tet K; experiment: microbe, parasite or virus in culture; format: cell-based; details: Staphylococcus aureus, UBMS887TETK, 18 h
[8] = system: Staphylococcus aureus strain Smith (tetracycline sensitive); experiment: Acute lethal infection in mice, S. aureus Smith; format: in vivo; details: for ED50: Staphylococcus aureus, 168 h, mice, S. aureus Smith (Sens), 7 day survival, read-out: ED50
S. aureus NEMC 8769 = experiment: MIC, agar dilution; format: cell-based; details: Staphylococcus aureus, NEMC8769, 18 h
E. coli J3272 Tet C = experiment: microbe, parasite or virus in culture; format: cell-based; details: Escherichia coli, J3272TETC, 18 h
E. coli J3272 Tet D = experiment: microbe, parasite or virus in culture; format: cell-based; details: Escherichia coli, J3272TETD, 18 h
E. coli ATCC 25922 = experiment: MIC, agar dilution; format: cell-based; details: Escherichia coli, ATCC25922, 18 h
S. aureus SMITH (MP) = experiment: MIC, agar dilution; format: cell-based; details: Staphylococcus aureus, 18 h; S. aureus SMITH (MP); read-out: MIC
[9] = system: E. coli UBMS 89-2 Tet sens.; experiment: MIC, agar dilution; format: cell-based; details: Escherichia coli, 18 h
S. aureus UBMS 88-4 = experiment: MIC, agar dilution; format: cell-based; details: Staphylococcus aureus, UBMS884, 18 h
Enterococcus 12201 = experiment: MIC, agar dilution; format: cell-based; details: Enterococcus, 12201, 18 h
E. coli UBMS 90-4 Tet M = experiment: microbe, parasite or virus in culture; format: cell-based; details: Escherichia coli, UBMS904TETM, 18 h
[10] = system: S. aureus UBMS 90-1 Tet M; experiment: microbe, parasite or virus in culture; format: cell-based; details: Staphylococcus aureus, UBMS901TETM, 18 h
S. marcescens FPOR 8733 = experiment: MIC, agar dilution; format: cell-based; details: Serratia marcescens, FPOR8733, 18 h, read-out: MIC
[11] = system: E. coli MC 4100 TNIOC Tet B; experiment: microbe, parasite or virus in culture; format: cell-based; details: Escherichia coli, 18 h
[12] = Ps. aeruginosa ATCC 27853, read-out: MIC
[13] = S. hemolyticus AVHAH 88-3, read-out: MIC
[14] = Enterococcus 12201, read-out: MIC

## CCCNCC(=O)Nc1ccc2c(c1O)C(=O)C1=C(O)[C@]3(O)C(=O)C(C(N)=O)=C(O)[C@@H](N(C)C)C3CC1C2 (stereo partly drawn) [C, [4S-(4alpha,12aalpha)]-4-(Dimethylamino)-1,4,4a,5,5a,6,11,12a-octahydro-3,10,12,12a-tetrahydroxy-1,11-dioxo-9-[[(propylamino)acetyl]amino]-2-naphthacenecarboxamide dihydrochloride]
E. coli #311 (MP); E. coli #311 (MP), read-out: MIC
  MIC: 0.5 µg/mL
E. coli UBMS 89-1 Tet M
  MIC: 0.25 µg/mL
[1]
  MIC: 0.25 µg/mL
[2]; [12]
  MIC: 16 µg/mL
E. coli J2175
  MIC: 0.25 µg/mL
S. aureus IVES 1983; S. aureus IVES 1983, read-out: MIC
  MIC: 4 µg/mL
[3]
  MIC: 0.12 µg/mL
S. aureus ATCC 29213; read-out: MIC
  MIC: 0.25 µg/mL
E. faecalis ATCC 29212
  MIC: 0.12 µg/mL
E. coli UBMS 88-1 Tet B
  MIC: 0.5 µg/mL
E. coli UBMS 90-5
  MIC: 0.25 µg/mL
E. coli BAJ9003 IMP MUT
  MIC: 0.06 µg/mL
E. coli PRP1 Tet A
  MIC: 1 µg/mL
S. aureus ROSE (MP); read-out: MIC
  MIC: 16 µg/mL
S. aureus IVES 2943; S. aureus IVES 2943, read-out: MIC
  MIC: 4 µg/mL
[4]; [13]
  MIC: 0.5 µg/mL
[5]
  MIC: 0.5 µg/mL
S. aureus UBMS 90-3
  MIC: 0.06 µg/mL
[6]
  MIC: 4 µg/mL
[7]
  MIC: 2 µg/mL
[8]; iv, Intraveneous
  ED50: 1 to 2 mg/kg
[8]; po, Oral
  ED50: > 16 mg/kg
[8]; tested intravenously against the minocycline sensitive organism S. aureus Smith
  in vivo activity (in words): very good in vivo activity
S. aureus NEMC 8769
  MIC: 0.06 µg/mL
E. coli J3272 Tet C
  MIC: 0.5 µg/mL
E. coli J3272 Tet D
  MIC: 0.12 µg/mL
E. coli ATCC 25922
  MIC: 0.12 µg/mL
S. aureus SMITH (MP)
  MIC: 0.12 µg/mL
[9]
  MIC: 0.25 µg/mL
S. aureus UBMS 88-4
  MIC: 0.25 µg/mL
Enterococcus 12201
  MIC: 0.25 µg/mL
E. coli UBMS 90-4 Tet M
  MIC: 0.25 µg/mL
[10]
  MIC: 0.25 µg/mL
S. marcescens FPOR 8733
  MIC: 4 µg/mL

## CCN(CC)CC(=O)Nc1ccc2c(c1O)C(=O)C1=C(O)[C@]3(O)C(=O)C(C(N)=O)=C(O)[C@@H](N(C)C)C3CC1C2 (stereo partly drawn) [O, [4S-(4alpha,12aalpha)]-9-[[(Diethylamino)acetyl]amino]-4-(dimethylamino)-1,4,4a,5,5a,6,11,12a-octahydro-3,10,12,12a-tetrahydroxy-1,11-dioxo-2-naphthacenecarboxamide dihydrochloride]
E. coli #311 (MP)
  MIC: 1 µg/mL
E. coli UBMS 89-1 Tet M
  MIC: 0.5 µg/mL
[1]
  MIC: 0.5 µg/mL
[2]
  MIC: 32 µg/mL
E. coli J2175
  MIC: 1 µg/mL
S. aureus IVES 1983
  MIC: 0.5 µg/mL
[3]
  MIC: 0.5 µg/mL
S. aureus ATCC 29213
  MIC: 0.5 µg/mL
E. faecalis ATCC 29212
  MIC: 0.25 µg/mL
E. coli UBMS 88-1 Tet B
  MIC: 1 µg/mL
E. coli UBMS 90-5
  MIC: 1 µg/mL
E. coli BAJ9003 IMP MUT
  MIC: 0.12 µg/mL
S. aureus ROSE (MP)
  MIC: 2 µg/mL
S. aureus IVES 2943
  MIC: 1 µg/mL
[4]
  MIC: 2 µg/mL
[5]
  MIC: 0.5 µg/mL
S. aureus UBMS 90-3; S. aureus UBMS 90-3, read-out: MIC
  MIC: 0.25 µg/mL
[6]
  MIC: 1 µg/mL
[7]
  MIC: 0.5 µg/mL
S. aureus NEMC 8769
  MIC: 1 µg/mL
E. coli J3272 Tet C
  MIC: 1 µg/mL
E. coli J3272 Tet D
  MIC: 0.5 µg/mL
[11]
  MIC: 1 µg/mL
E. coli ATCC 25922; read-out: MIC
  MIC: 0.5 µg/mL
S. aureus SMITH (MP)
  MIC: 0.25 µg/mL
[9]
  MIC: 1 µg/mL
S. aureus UBMS 88-4
  MIC: 0.5 µg/mL
Enterococcus 12201; [14]
  MIC: 0.25 µg/mL
E. coli UBMS 90-4 Tet M
  MIC: 0.5 µg/mL
[10]
  MIC: 0.5 µg/mL
S. marcescens FPOR 8733
  MIC: 8 µg/mL

## CN(C)CC(=O)Nc1ccc2c(c1O)C(=O)C1=C(O)[C@]3(O)C(=O)C(C(=O)NCN4CCCC4)=C(O)[C@@H](N(C)C)C3CC1C2 (stereo partly drawn) [EE, [4S-(4alpha,12aalpha)]-4-(Dimethylamino)-9-[[(dimethylamino)acetyl]amino]-1,4,4a,5,5a,6,11,12a-octahydro-3,10,12,12a-tetrahydroxy-1,11-dioxo-N-(l-pyrrolidinylmethyl)-2-naphthacenecarboxamide]
E. coli #311 (MP)
  MIC: 0.5 µg/mL (≈ 0.837 µM)
E. coli UBMS 89-1 Tet M
  MIC: 0.25 µg/mL (≈ 0.418 µM)
[1]
  MIC: 0.25 µg/mL (≈ 0.418 µM)
[2]; [12]
  MIC: 16 µg/mL (≈ 26.8 µM)
E. coli J2175
  MIC: 0.5 µg/mL (≈ 0.837 µM)
S. aureus IVES 1983
  MIC: 2 µg/mL (≈ 3.35 µM)
[3]
  MIC: 0.12 µg/mL (≈ 0.201 µM)
S. aureus ATCC 29213; read-out: MIC
  MIC: 0.25 µg/mL (≈ 0.418 µM)
E. faecalis ATCC 29212
  MIC: 0.12 µg/mL (≈ 0.201 µM)
E. coli UBMS 88-1 Tet B
  MIC: 0.5 µg/mL (≈ 0.837 µM)
E. coli UBMS 90-5
  MIC: 0.25 µg/mL (≈ 0.418 µM)
E. coli BAJ9003 IMP MUT
  MIC: 0.12 µg/mL (≈ 0.201 µM)
E. coli PRP1 Tet A
  MIC: 2 µg/mL (≈ 3.35 µM)
S. aureus ROSE (MP)
  MIC: 8 µg/mL (≈ 13.4 µM)
S. aureus IVES 2943
  MIC: 2 µg/mL (≈ 3.35 µM)
[4]; [13]
  MIC: 0.5 µg/mL (≈ 0.837 µM)
[5]
  MIC: 0.25 µg/mL (≈ 0.418 µM)
S. aureus UBMS 90-3; S. aureus UBMS 90-3
  MIC: 0.12 µg/mL (≈ 0.201 µM)
[6]; X. maltophilia NEMC 87210, read-out: MIC
  MIC: 2 µg/mL (≈ 3.35 µM)
[7]
  MIC: 1 µg/mL (≈ 1.67 µM)
S. aureus NEMC 8769; read-out: MIC
  MIC: 0.25 µg/mL (≈ 0.418 µM)
E. coli J3272 Tet C
  MIC: 1 µg/mL (≈ 1.67 µM)
E. coli J3272 Tet D
  MIC: 0.25 µg/mL (≈ 0.418 µM)
[11]
  MIC: 0.5 µg/mL (≈ 0.837 µM)
E. coli ATCC 25922
  MIC: 0.25 µg/mL (≈ 0.418 µM)
S. aureus SMITH (MP)
  MIC: 0.25 µg/mL (≈ 0.418 µM)
[9]
  MIC: 0.5 µg/mL (≈ 0.837 µM)
S. aureus UBMS 88-4
  MIC: 0.25 µg/mL (≈ 0.418 µM)
Enterococcus 12201; [14]
  MIC: 0.25 µg/mL (≈ 0.418 µM)
E. coli UBMS 90-4 Tet M
  MIC: 0.25 µg/mL (≈ 0.418 µM)
[10]
  MIC: 0.25 µg/mL (≈ 0.418 µM)
S. marcescens FPOR 8733
  MIC: 4 µg/mL (≈ 6.69 µM)
